Assay results: patent US12668567B2 (Zywie, LLC, priority 2023, dated 2026)
Entries after “also recorded” stand apart in the source; their conditions may differ.

Key:
[1] = tested on: iPSC-derived human neurons bearing the Swedish amyloid precursor protein mutation; assay: Secretion of Abeta40 and Abeta42 into media (ELISA); assay type: cell-based; conditions: 5 days; for secretion of Abeta40 into the media / secretion of Abeta42 into the media: 10 micromolar; for secretion of Abeta40 into the media: FIG. 7A; for secretion of Abeta42 into the media: FIG. 7B
From the text: Media was collected and analysed by ELISA assay.
Media was taken and analyzed by ELISA (Invitrogen) for Abeta 40 (FIG. 7A) and 42 (FIG. 7B) following manufacturer's instructions.

TFEB = TFEB transfer to the nucleus (immunostaining, nuclear puncta); assay type: cell-based; conditions: human iPSC-derived neurons, 14 days; FIG. 6
Protocol: To obtain the data, human iPSC-derived neurons were treated with difluor-substituted-ambroxol for 14 days. Cells were fixed and endogenous TFEB was immunostained and nuclei were identified by DAPI staining. Cells were imaged on a Leica SP8 Confocal Microscope. TFEB signal appeared as puncta throughout the cytoplasm and nucleus (FIG. 6B). TFEB puncta within the nucleus were quantitated using IMARIS software (Bitplane).
Human iPSC-derived neurons were treated with difluoro-substituted-ambroxol for 14 days. Cells were fixed and endogenous TFEB was immunostained. Nuclei were identified by DAPI staining. Cells were imaged as 3D stacks on a Leica SP8 Confocal Microscope. TFEB signal appeared as puncta throughout the cytoplasm and nucleus (FIG. 6A). TFEB puncta within the nucleus were quantitated using IMARIS 7.7 software (Bitplane) (FIG. 6B).

N2A neuroblastoma cells = assay: Lysosomal, autophagosomal and TFEB gene expression by qPCR in N2A cells; assay type: cell-based; conditions: 10 micromolar, FIG. 4
Protocol: To obtain the data, N2A neuroblastoma cells were treated for 3 days with solvent alone (DMSO), ZW-010 (difluoro) or ZW-011 (dimethoxy) at 10 micromolar. Cells were extracted and mRNAs were quantitated by qPCR.
In FIG. 4, N2a Neuroblastoma cells were obtained from the American Tissue Type Collection (ATCC). Cells were plated in a 6-well plate at a density of 100,000 cells/well. Cells were given 24 hours in MEM supplemented with 10% Fetal Bovine Serum (FBS) and then differentiated by serum starvation in MEM for 24 hours. […] Cells were left in treated media for 24 hours then RNA was TRIzol-chloroform extracted. cDNA was created using an iScript cDNA synthesis kit (Bio-Rad), and RT-PCR was run using a SsoAdvanced Universal SYBR Green Supermix kit (Bio-Rad).

[2] = mouse, in vivo, po, 10 mg/kg
Protocol: Both compounds were dosed at 10 mg/kg (free base equivalent) as 1 mg/mL clear solutions in 5:95 v/v dimethylsulfoxide (DMSO)/saline. Volumes administered were calculated for each animal based on their most recent weight. Animals were fasted overnight prior to drug administration and food and water were returned 4 h after dose administration. Mice (N=3 per group) were sacrificed at 0.15, 0.25, 1, 2, 4, 8, and 24 h post-dose. Blood (K2EDTA collection tubes) and brain were collected from each animal at each time point. Plasma (isolated from blood samples by centrifugation) and brain homogenates (obtained by homogenization with 50% methanol in water in a 1:2 w/v ratio) were used to prepare samples for quantitative analysis (internal standard: verapamil) by HPLC/MS-MS (C18 column, gradient elution; standard curves from 1 to 3,000 ng/mL; electrospray, positive ionization mode, multiple reaction monitoring—MRM—mode).

[3] = tested on: human induced pluripotent stem cell (iPSC)-derived neurons; assay: Lysosomal size (Lysotracker, confocal microscopy) in iPSC-derived neurons; assay type: cell-based; conditions: 14 days, IMARIS software, FIG. 3
Protocol: To obtain the data, human induced pluripotent stem cell (iPSC)-derived neurons were grown in culture for 14 days. Lysosomes were stained with “Lysotracker” and cells were fixed and imaged using confocal micrsosopy. Lysosomal size was measured using IMARIS software (Bitplane).
In FIG. 3 human neuronal inducible Pluripotent Stem Cells (iPSCs) were obtained from the New York Stem Cell Foundation. Cultured cells were differentiated and maintained in proprietary media from Stem Cell Technology. […] Cells were treated for 14 days. Lysosomes were stained with “Lysotracker Green” (Invitrogen) following manufacturer's directions. Cells were fixed and 3D image stacks were acquired using a Leica SP8 laser scanning confocal microscope. Lysosomal size was quantitated using IMARIS 7.7 software (Bitplane).

[4] = Metabolic stability in human liver microsomes; assay type: in vitro ADME; conditions: for Increase of elimination half-life vs. ambroxol: human liver microsomes; for In vitro elimination half-life t1/2 / Intrinsic clearance CLint-microsomes: human liver microsomes 1 mg/mL protein, 1 μM compound, 37° C., NADPH-regenerating system
Protocol: The compounds were added to preparations of human liver microsomes (200 μL per incubation at a 1 mg/mL protein concentration) such that the final compound concentration was 1 μM. The samples were incubated at 37° C. in the presence of a reduced nicotinamide adenine dinucleotide phosphate (NADPH)-regenerating system (NADP, 1 mM, pH 7.4; glucose-6-phosphate, 5 mM, pH 7.4; glucose-6-phosphate dehydrogenase, 1 unit/mL). A positive control (midazolam, 1 μM, 0.1 mg/mL protein) was incubated concurrently to ensure the microsome preparation was performing as expected. Samples were obtained at t=0, 30, 60, and 120 min and quenched by addition of acetonitrile.
Quenched samples were analyzed by liquid chromatography coupled to tandem mass spectrometry detection (LC/MS-MS). The concentration of the test compounds at each time point were converted to percent remaining relative to the concentration of the compound at time t=0 (which serves as the 100% value). All data points were included in data processing. The rate constant of elimination (kel, min^−1) of each test compound was determined from the time course of disappearance of the parent compound based on fitting the experimental data to a single exponential decay formula (At=Aoe^−kelt, where At is the % remaining at time t, Ao is 100%, […] is the elimination rate constant, and t is time). The in vitro half-life (t1/2) was determined from kel based on the formula: t1/2=ln(2)/kel. The rate constant of elimination was also used to calculate the in vitro intrinsic clearance CLint-microsomes (μL/min/mg protein).

[5] = tested on: iPSC-derived human neurons; assay: Lysosomal and autophagosomal gene expression by qPCR in iPSC-derived human neurons; assay type: cell-based; conditions: 3 days, 10 micromolar, FIG. 5
Protocol: To obtain the data, iPSC-derived human Neurons were treated for 3 days with solvent alone (DMSO), ZW-010 (difluoro) or ZW-011 (dimethoxy) at 10 micromolar. Cells were extracted and mRNAs were quantitated by qPCR.
In FIG. 5, Human iPSC-derived neurons (as in FIG. 3) were plated on two 6-well plates at a density of 150,000 cells/well. […] Cells were treated for 3 days and cells were TRIzol-chloroform extracted. cDNA was created using an iScript cDNA synthesis kit (Bio-Rad), and RT-PCR was run using a SsoAdvanced Universal SYBR Green Supermix kit (Bio-Rad).

mice = assay: Novel place recognition (cognitive acuity test at 7 months); assay type: in vivo, mouse; conditions: 150 mg/kg/day and 50 mg/kg/day vs. control, tested at 7 months; FIG. 9
Protocol: A Discrimination Index (DI)=(tnovel-tfamiliar)/(tnovel+tfamiliar) was used to assess the time spent exploring near the object in a novel place (“tnovel”) vs. the total exploration time overall. Discrimination Index scores greater than zero are considered to indicate good place recognition memory.
Three groups of mice, with at least 13 mice in each group, are given a cognitive acuity test at 7 months. The three groups of mice are: “High Dose” Group (150 mg/kg/day of a compound of the present invention), “Low Dose” (50 mg/kg/day of a compound of the present invention) Group, and a Control Group (not administered a compound of the present invention).

mouse B6D2F1 model = assay: Lifespan study with chow supplement; assay type: in vivo; conditions: 50 mg/kg daily as chow supplement
Protocol: Weaned male BDF1 mice raised from pups, housed 1-4 animals per cage and fed Teklad 7013 NIH-31 rodent chow and water ad libitum, at 2 months of age, are divided into two roughly equal groups of 22-25 animals. One group continues to be fed the Teklad chow as before (control); the other group is switched to Teklad chow formulated with any one of compounds 1-6 at 300 mg per kg of chow. This formulation was designed, based on the average ad libitum chow consumption of an adult male BDF1 mouse, to deliver 50 mg/kg/day (based on body mass) to each mouse in the treated group. Mice are maintained on this diet until they die naturally or until they reach 16 months of age, at which time the experiment ends. During the course of the experiment, all mice are periodically removed from their cages and handled in the course of subjecting them to various sensorimotor, cognitive, and/or behavioral tests.

AUClast Brain/Plasma [2] | AUClast, brain [2] | AUClast, plasma [2] | molar exposure AUClast [2] | Increase of elimination half-life vs. ambroxol [4] | In vitro elimination half-life t1/2 [4] | Intrinsic clearance CLint-microsomes [4] | Structure (SMILES) | secretion of Abeta40 into the media [1] | secretion of Abeta42 into the media [1] | TFEB transfer to the nucleus (TFEB) | lysosomal, autophagosomal and TFEB gene expression (LAMP1, Cathepsin B, GBA1, LC3, TFEB mRNA) (N2A neuroblastoma cells) | lysosomal size [3] | lysosomal and autophagosomal gene expression (LAMP1, Cathepsin D, Cathepsin B, GBA1, LC3, TFEB mRNA) [5] | secretion of beta amyloid species (Abeta 40 and 42) ([1]; FIG. 7A-B) | cognitive acuity (novel place recognition) (mice) | lifespan (mouse B6D2F1 model; starting at 2 months of age, FIG. 8) | healthspan (mouse B6D2F1 model; surviving animals when sacrificed)
3.6 | 10774 ng·h/g | 2991 ng·h/mL | 42.0 µM·h | increased by more than two-fold | >2 h | <5.775 μL/min/mg protein | Nc1c(F)cc(F)cc1CN[C@H]1CC[C@H](O)CC1 [ZW-010, trans-{4-[(2-amino-3.5-difluorophenyl)methyl]amino}cyclohexanol] | decreased secretion | decreased secretion | induces TFEB transfer to the nucleus | increased transcription of lysosome-associated LAMP1, Cathepsin B, GBA1, and autophagy-associated LC3 and TFEB to a greater extent than ambroxol; also recorded: drive lysosomal and autophagosomal and TFEB gene expression | increase lysosomal size | increased transcription of lysosome-associated LAMP1, Cathepsin D, Cathepsin B, GBA1, and autophagy-associated LC3 and TFEB to a greater extent than ambroxol; also recorded: drive lysosomal and autophagosomal gene expression to a greater degree in iPSC-derived human neurons compared with ambroxol |  |  |  | 
 |  |  |  | increased by more than two-fold | >2 h | <5.775 μL/min/mg protein | COc1cc(CN[C@H]2CC[C@H](O)CC2)c(N)c(OC)c1 [ZW-011, trans-4-{[(2-amino-3.5-dimethoxyphenyl)methyl]amino}cyclohexanol] | decreased secretion | decreased secretion |  | increased transcription of lysosome-associated LAMP1, Cathepsin B, GBA1, and autophagy-associated LC3 and TFEB to a greater extent than ambroxol; also recorded: drive lysosomal and autophagosomal and TFEB gene expression | increase lysosomal size | increased transcription of lysosome-associated LAMP1, Cathepsin D, Cathepsin B, GBA1, and autophagy-associated LC3 and TFEB to a greater extent than ambroxol; also recorded: drive lysosomal and autophagosomal gene expression to a greater degree in iPSC-derived human neurons compared with ambroxol |  |  |  | 
 |  |  |  |  |  |  | Nc1c(Br)cc(Br)cc1CN[C@H]1CC[C@H](O)CC1 [ambroxol, trans-4-((2-amino-3,5-dibromobenzyl)amino) cyclohexanol] |  |  |  |  |  |  | effective in reducing secretion of beta amyloid species | dose-related improvement in cognitive acuity | able to increase lifespan | healthspan was extended in parallel with lifespan
